Reference: patent publication US8685976B2, “Cell adhesion promoting agent and method of promoting cell adhesion” (Kyoto University, priority 2008, dated 2014)
“Also recorded” adds a separate entry of the source. Where two headings read alike, the source gives them in different places.

Key:
Jurkat cells [1] = test: Cell adhesion assay by addition, Jurkat cells; assay type: cell-based, human; details: Jurkat cells; for cell-adhesion promoting activity of adhesamine derivatives: FIG. 6
Protocol: 1 μL each of an aqueous solution of adhesamine (1), Type I collagen, poly-L-lysine hydrochloride, poly-L-ornithine hydrobromide, and fibronectin at a concentration of 50, 500, and 5000 μg/ml, was added to 96-well plate. 100 μL of HepG2 suspension (4×10^5 cells/mL) was added to each well. After 3-hour incubation at 37° C., non-adherent cells were removed by washing each well with PBS three times, and the attached cells were counted with a Neubauer counting chamber (Digital Bio). For Jurkat cells, 100 μL of cell suspension was added to each well at a density of 1×10^6 cells/ml. After 5-hour incubation at 37° C., non-adhered cells were removed by washing each well with PBS twice, and the attached cells were counted with a Neubauer counting chamber (Digital Bio). To calculate adhesion rates, firstly seeded cell numbers were assigned a value of 100%. As control tests, the same tests were conducted using wells supplied with only 1 μL of DMSO. Each assay was conducted in triplicate, and the means and standard derivations were calculated.
The comparison between adhesamine and its derivatives regarding cell adhesion promotion activity was conducted using Jurkat cells by way of reagent addition assay. 1 μL each of DMSO solutions of the compounds having concentrations of 60, 600, and 6000 μM were added to 96-well plates. The wells were supplied with 100 μL each of Jurkat cell suspensions (1×10^6 cells/mL). After 5-hour incubation at 37° C., non-adhered cells were removed by washing each well with PBS twice, and the attached cells were counted with a Neubauer counting chamber (Digital Bio). To calculate adhesion rates, firstly seeded cell numbers were assigned a value of 100%. As control tests, the same tests were conducted using well plates supplied with only 1 μL of DMSO. Each assay was conducted in triplicate, and the means and standard derivations were calculated.
However, since HepG2 cells have an intrinsic propensity to adhere to plastic tissue-culture plates, a test was conducted to determine whether the same effect was also obtained in the Jurkat cell line and human T-lymphocytes that are floating cells. Remarkably, 30% and 60% of the Jurkat cells attached to a culture plate in the presence of 6 and 60 μM of adhesamine, respectively (FIG. 1D). Removal of adhesamine by washing the plate twice with PBS detached the cells. 93% of Jurkat cells were released from the surface of a culture plate 24 hour after washing (FIG. 2). […] Simply adding adhesamine to the medium promoted adhesion of Jurkat cells onto culture plates, but not to each other.

HepG2 cells [2] = test: Confocal imaging of fluorescent compounds; assay type: cell-based; details: for localization of the fluorescent compound: HepG2, 6 μM, 3 hours
Protocol: HepG2 cells were incubated with Compound 4 (6 μM, A and C) or Compound 5 (6 μM, B and D) for 3 hours after seeding.
(§1) In (A) and (B), Jurkat cells (A) or HepG2 cells (B) were pretreated with 0.02 units/mL of heparinase, heparitinase I, and heparitinase II, or 0.1 units/mL of protease-free chondroitinase ABC in a serum-free culture medium for 1 hour at 37° C. before evaluating cell adhesion. The treated cells were seeded onto adhesamine-added or fibronectin-coated plastic wells. The attached cells were counted at 5 hours after seeding. The concentrations of adhesamine and fibronectin were 6 μM and 5 μg/mL, respectively. Each point represents the means±SD. (C) and (D) show localization of Compound 4 in HepG2 cells treated with heparinase/heparitinase I/heparitinase II (C) or chondroitinase ABC (D).
HepG2 cell suspension (100 μL) were seeded on a 96-well plate (Greiner bio-one) at a density of 2×10^5 cells/mL, and the cells were incubated with Compounds 4 and 5 for 3 hours at 37° C., at a concentration of 6 μM. After incubation, medium exchange was performed, and the cells were then subjected to fluorescent microscopic observation. Microscopic images of the cells were captured by a Yokogawa CSU22 confocal fluorescence microscope with 405 nm laser excitation.

Jurkat cells [3] = test: Cytoskeletal disruption, cell adhesion; assay type: cell-based, human; details: for effect on adhesamine-mediated cell adhesion: adhesamine 6 μM, cytochalasin B 0-100 μM or nocodazole 0-0.5 μM; for effect on fibronectin-mediated cell adhesion: fibronectin-coated plate; for effect on cell attachment induced by poly-L-lysine: poly-L-lysine-coated plate
Protocol: Jurkat cells were adhered to plastic plates by adding adhesamine thereto in the presence of nocodazole (a tubulin inhibitor) or cytochalasin B (an actin inhibitor). Both nocodazole and cytochalasin inhibited adhesamine-induced cell adhesion, as observed in the cells adhered to a fibronectin-coated plate. […] The concentration of adhesamine was 6 μM. The fibronectin- or poly-L-lysine-coated plates were prepared by pretreating wells of 96-well plates with fibronectin or poly-L-lysine (1 ng/well).
Jurkat cells (5×10^4) were cultured in 100 μL of RPMI, and incubated with cytochalasin B (0-100 μM) or nocodazole (0-0.5 μM) at 37° C. The treated cells were then assayed for their responses to adhesamine (6 μM). Their responses to fibronectin- or poly-L-lysine-coated plates were also evaluated. The coated plates were prepared by pretreating wells of 96-well plates with fibronectin or poly-L-lysine (1 ng/well).

[4] = test system: adhesamine (6 μM)-induced cell attachment of Jurkat cells; test: Squelching assay; assay type: cell-based, human; details: for IC50: adhesamine 6 μM, Jurkat cells
Protocol: Adhesamine (1: 0.6 nmol) and each glycosaminoglycan (GAG) (heparin, heparan sulfate, chondroitin sulfate, keratan sulfate, hyaluronic acid, and heparin oligosaccharides) ranging from 0.006 to 12 nmol were stirred in 10 μL of 50 mM phosphate buffer (pH 6.0) containing 100 mM NaCl and 1% DMSO with a vortex mixer at room temperature for 30 min. Thereafter, these mixtures were transferred to 96-well plates, and 90 μL of Jurkat cell suspension (1×10^5 cells/mL) was added to each well. After 5-hour incubation at 37° C., non-adherent cells were removed by washing each well with PBS twice, and the attached cells were counted with a Neubauer counting chamber (Digital Bio). To calculate the inhibition rates, the number of attached cells in the wells supplied only with 1% DMSO or GAG of each concentration was subtracted from the number of cells in which the cell adhesions were observed after addition of the samples. The inhibition rate is expressed as follows.
wherein AC+(−)GAGs, +(−)adhesamine expresses the number of adhered cells in the presence (absence) of GAGs and adhesamine.
IC50 values are defined as the concentrations of GAGs required for 50% inhibition of the adhesamine (6 μM)-induced cell attachment. The results of the squelching assays were plotted as percentage of inhibition vs. log (GAG), and IC50 values were determined from curve fits of multiple independent experiments.

[5] = test system: focal adhesion kinase (FAK); test: Western blotting, FAK activation; assay type: cell-based, human; details: Jurkat, adhesamine 6 μM, excess heparin or RGD peptide (100 μg/mL)
Protocol: (§2) Jurkat cells were treated with adhesamine (6 μM) in a serum-poor culture medium (0.1% FBS) for the indicated periods of time. The treated cell lysates were Western blotted with antibodies against FAK phospho-tyrosine^397 (pFAK), FAK, ERK1/2 phospho-threonine^202/tyrosine^204 (pERK) or ERK. In (B), Jurkat cells were incubated for 5 hours with varied concentrations of adhesamine or poly-L-lysine. The cell lysates were Western blotted with antibodies against FAK phospho-tyrosine^397 or FAK. […] The concentration of adhesamine (1) was 6 μM.
(§3) Jurkat cells were maintained in an RPMI medium containing 10% FBS. 5-6 million Jurkat cells were dispensed to a well of a 6-well plate in a final volume of 2 mL, and then incubated at 37° C. for 0-5 hours in the presence of adhesamine or poly-L-lysine. Non-adherent cells were removed and pelleted, and the remaining adherent cells were lysed in a 125 mM Tris-HCl buffer (pH 6.8) containing 4% SDS, 10% glycerol, 0.006% bromophenol blue, and 1.8% β-mercaptoethanol. The adherent cell homogenate was combined with pelleted nonadherent cells from the same well, and the combined sample was boiled for 5 minutes. The samples were separated by SDS-PAGE and electroblotted onto a nitrocellulose membrane. The membranes were blocked in 1% BSA and incubated with primary antibody, and then with horseradish peroxidase-conjugated secondary antibody. The blots were developed using the enhanced chemiluminescence technique.

[6] = test system: extracellular signal-regulated kinase (ERK); test: Western blotting, ERK activation; assay type: cell-based, human; details: Jurkat, excess amounts of heparin
Protocol: as §2
as §3, with “The blots were developed using the enhanced chemiluminescence technique.” left out

Jurkat cells [7] = test: Enzymatic treatment of cells, cell adhesion, Jurkat; assay type: cell-based, human; details: heparinases 0.02 units/mL, chondroitinase ABC 0.1 units/mL
Protocol: as §1
Jurkat cells (5×10^4) were cultured in 100 μL of RPMI and treated with a combination of heparinase, heparitinase I, and heparitinase II (0.02 units/mL) or chondroitinase ABC (0.1 units/mL) for 30 min at room temperature. The ability of the treated cells to respond to adhesamine was evaluated by counting the cells that were attached to plastic wells of a 96-well plate in the presence of adhesamine (6 μM).

HepG2 cells [8] = test: Enzymatic treatment of cells, cell adhesion, HepG2; assay type: cell-based; details: heparinases 0.02 units/mL, chondroitinase ABC 0.1 units/mL
Protocol: as §1
The effects of these GAG-degrading enzymes on the intact or adhesamine-enhanced attachment of HepG2 cells were examined. […] As observed in Jurkat cells, adhesamine-induced cell adhesion was canceled by heparan sulfate-degrading enzymes, but not by chondroitinase ABC (FIG. 9B).

Jurkat cells [9] = test: Microinjection of Alexa Fluor 594; assay type: cell-based, human; details: 5 μg/mL reagent
Protocol: The concentration of the reagents used was 5 μg/mL.
The solutions of adhesamine (1), Type I collagen, poly-L-lysine hydrochloride, and fibronectin were prepared by diluting with PBS containing 1% (v/v) DMSO. 10 μL of each solution (1 mg/mL) was added to glass bottom culture dishes (35 mm uncoated dish). 2 mL of cell suspension in a culture medium was added to each well at a density of 2×10^5 cells/mL. After 14-hour incubation at 37° C., Alexa Fluor 594 (Molecular Probes, USA) at a concentration of 5 mg/mL was injected into Jurkat cells by using a CI-2000 automated cell injection system (Fujitsu, Japan). Success rates of the microinjection were evaluated by direct observation of the fluorescent cells through a fluorescent-microscopic window of the injection system. The data shown are means±SD for a minimum of three experiments. 20 cells were injected in each experiment.

[10] = read-out: IC50 (GAGs, 50% inhibition of adhesamine-induced cell attachment)

With `C1C[N+]2(CCN1)CC[N+]1(CCNCC1)CC2.[Br-].[Br-]` [Compound 2, 3,12-diaza-6,9-diazoniadispiro-(5,2,5,2)-hexadecane dibromide, reference compound] the “cell-adhesion promoting activity of adhesamine derivatives” value (from here on “cell-adhesion promoting activity”) (Jurkat cells [1]) was “completely eliminated the activity”.

For `CSc1nc(Cl)c(CO)c(N2CC[N+]3(CC2)CC[N+]2(CCN(c4nc(SC)nc(Cl)c4CO)CC2)CC3)n1` [Compound 3], the “cell-adhesion promoting activity” value (Jurkat cells [1]) was “no impact on activity”.

`CSc1nc(Cl)c(C=NNS(=O)(=O)c2cccc3c(N(C)C)cccc23)c(N2CC[N+]3(CC2)CC[N+]2(CCN(c4nc(SC)nc(Cl)c4C=NNS(=O)(=O)c4cccc5c(N(C)C)cccc45)CC2)CC3)n1` [Compound 4] was tested, and the “cell-adhesion promoting activity” value (Jurkat cells [1]) was “maintained the cell-adhesion promoting activity”, the “localization of the fluorescent compound” value (HepG2 cells [2]) was “on the cell surface” and the “localization of the fluorescent probe” value (HepG2 cells [2]; HepG2 cells treated with chondroitinase) was “no impact on the cell-surface localization”. For the same compound, the “localization of the fluorescent probe” value (HepG2 cells [2]; HepG2 cells treated with heparan sulfate-degrading enzymes) was “diffused from the cell surface”.

For `CN(C)c1cccc2c(S(=O)(=O)N3CC[N+]4(CC3)CC[N+]3(CCN(S(=O)(=O)c5cccc6c(N(C)C)cccc56)CC3)CC4)cccc12` [Compound 5], the “cell-adhesion promoting activity” value (Jurkat cells [1]) was “little effect on cell adhesion” and the “localization of the fluorescent compound” value (HepG2 cells [2]) was “no clear localization”.

For `O=[N+]([O-])c1c(Cl)ncnc1N1CC[N+]2(CC1)CC[N+]1(CCN(c3ncnc(Cl)c3[N+](=O)[O-])CC1)CC2` [Compound 6], the “Jurkat cell adhesion rate (%) in 6 μM of Adhesamine” value (from here on “Jurkat cell adhesion rate (%)”) (Jurkat cells [1]) was 22 ± 3.2%.

For `O=[N+]([O-])c1c(N2CC[N+]3(CC2)CC[N+]2(CCNCC2)CC3)ncnc1N1CC[N+]2(CC1)CC[N+]1(CCNCC1)CC2.[Cl-].[Cl-].[Cl-].[Cl-]` [Compound 7], the “Jurkat cell adhesion rate (%)” value (Jurkat cells [1]) was 21 ± 1.3%.

With `CSc1nc(Cl)c(C=O)c(N2CC[N+]3(CC2)CC[N+]2(CCN(c4ncnc(N5CC[N+]6(CC5)CC[N+]5(CCN(c7nc(SC)nc(Cl)c7C=O)CC5)CC6)c4[N+](=O)[O-])CC2)CC3)n1.[Cl-].[Cl-].[Cl-].[Cl-]` [Compound 8] the “Jurkat cell adhesion rate (%)” value (Jurkat cells [1]) was 28 ± 4.1%.

`Clc1nc(Cl)nc(N2CC[N+]3(CC2)CC[N+]2(CCN(c4nc(Cl)nc(Cl)n4)CC2)CC3)n1` [Compound 9] was tested, and the “Jurkat cell adhesion rate (%)” value (Jurkat cells [1]) was 35 ± 5.2%.

In the case of `C=C1[C@@H](C)[C@H]2[C@H](Cc3ccccc3)NC(=O)[C@]23OC(=O)/C=C/[C@H](O)CCC[C@@H](C)C/C=C/[C@H]3[C@@H]1O` [cytochalasin B], the “effect on adhesamine-mediated cell adhesion” value (Jurkat cells [3]) is reported as “inhibited”, the “effect on fibronectin-mediated cell adhesion” value (Jurkat cells [3]) is reported as “impaired” and the “effect on cell attachment induced by poly-L-lysine” value (Jurkat cells [3]) is reported as “no detectable effects; also recorded: hardly inhibited”.

`COC(=O)Nc1nc2ccc(C(=O)c3cccs3)cc2[nH]1` [nocodazole] was tested, and the “effect on adhesamine-mediated cell adhesion” value (Jurkat cells [3]) was “inhibited”, the “effect on fibronectin-mediated cell adhesion” value (Jurkat cells [3]) was “impaired” and the “effect on cell attachment induced by poly-L-lysine” value (Jurkat cells [3]) was “no detectable effects; also recorded: hardly inhibited”.

For Heparan sulfate, the IC50 [4, 10] was 790 nM.

For Heparin [reference compound], the IC50 [4, 10] was 270 nM, the IC50 ([4]; read-out: IC50 (heparin oligosaccharides, 50% inhibition of adhesamine-induced cell attachment)) was 270 ± 50 nM and the “effect on adhesamine-induced phosphorylation of FAK” value [5] was “reduced”. For the same compound, the “effect on adhesamine-induced ERK activation” value [6] was “blocked”.

With Hyaluronic acid the “ability to squelch the activity of adhesamine” value ([4]; GAG added to the medium together with adhesamine) was “no detectable effect” and the IC50 [4, 10] was over 120000 nM.

In the case of Keratan sulfate, the IC50 [4, 10] is reported as 1030 nM.

For chondroitinase ABC, the “effect on adhesamine-induced cell attachment” value (Jurkat cells [7]) was “no detectable effects” and the “inhibition of intact attachment of HepG2 cells” value (HepG2 cells [8]) was 7%.

“fibronectin: fibronectin from bovine plasma, plate-coating reagent” was tested, and the microinjection success rates (Jurkat cells [9]) was “up to 30%”.
